# Data: US20110294741A1, “USE OF COMPOUNDS IN THE TREATMENT OF TAU-INDUCED CYTOTOXICITIES” (Bioalvo-Servicos, Investigacao e Desenvolvimento em …, priority 2008, published 2011)
# What was measured:
# [1] = Partition of peptide into lipid bilayer vesicles (fluorescence titration); format: physicochemical
# Excerpt: Vesicles of zwiterionic lipid, POPC ([…]), and POPC with negative lipid, POPG in different proportions: 80:20 ▪, 50:50 and 30:70 ? until 100% POPG ( ? ). The unit of 1/1 w on the y axis is the ratio between fluorescence intensities.
# Vesicles of zwiterionic lipid, POPC, and POPC with negative lipid, POPG, in the proportion 50 POPC: 50 POPG.
# As can be observed, the fluorescence intensity of the phenolic moiety increases due to the insertion in the apolar environment created by the lipids. Negative lipids (other symbols) inhibit the interaction due to charge repulsion. […] KTP-NH2 is therefore suitable for i.v. or i.p. administration. KTP-NH2 diffuses through the blood stream, reaches the BBB, and translocates.
# In order to confirm that these plasma-stable KTP-NH2 derivatives maintained their lipophilicity, their potential interaction with human cell membranes was assessed. Again, we performed biophysical studies using fluorescent methodologies (Santos N. C., Prieto M. and Castanho M. A. 2003. Quantifying molecular partition into model systems of biomembranes: an emphasis on optical spectroscopic methods. Biochim Biophys Acta 1612: 123-135.).
# [2] = tested on: rats (Wister, male); assay: Increasing-temperature hot-plate test; format: in vivo, rat; conditions: i.p. and p.o. administration
# Procedure: Kyotorphin is an endogenous analgesic agent in the brain. However, Kyotorphin can not be used as an analgesic due to its inability to cross the blood-brain-barrier. […] In addition, KTP-NH2 efficacy after oral administration was also observed.
# In vivo behavioural anti-nociception tests were carried out in rats (Wister, male). Unless otherwise stated, compounds were administered by intra-peritoneal (i.p.) injection. For most assays, the Tail Flick and the Hot Plate tests were used.
# The hot-plate test (Eddy N. B and Leimbach D. 1953. Synthetic analgesics II. Dithienylbutenyl and dithienylbutylamines J. Pharmacol. Exp. Ther. 45: 339) evaluates a supraspinally integrated response in the form of thermal pain reflexes due to footpad contact with a heated surface. During the experiments, the animal is confined in a removable clear acrylic compartment where the latency time to the first hind paw or/and jumping responses are measured. […] The response is the licking of the hindpaw, and the corresponding plate temperature represents the recorded nociceptive end-point. […]
# A KTP derivative was used for comparative purposes, as control. Both drugs were injected i.p. and p.o. and rats were analysed for the Hot Plate and Tail Flick tests.
# [3] = tested on: Tau P301L ([…] I P301L cells); assay: Yeast platform DISAGGREGATOR I P301L, ER stress GFP reporter (target induced); format: cell-based; conditions: for decrease of the fluorescent signal: first assay (FIG. 9); for decrease of the stress: second assay (FIG. 11)
# Procedure: Cells were grown in 200 microlitre minimum medium supplemented with 20 g/L galactose, at 30° C., with agitation at 600 rpm;
# KTP-NH2 was further tested on a general inducer of the same pathological mechanism to assess its specificity for tau and compared with two control KTP derivatives which were tested on the same platform.
# The Endoplasmic Reticulum (ER) fulfils multiple cellular functions, the main one being the proper folding of proteins destined for secretion or display on the cell surface. Many disturbances cause accumulation of unfolded proteins in the ER, triggering an evolutionarily conserved response, termed the unfolded protein response (UPR) or ER stress. The initial intent of the UPR is to adapt to the changing environment, and re-establish normal ER function.
# In parallel, the yeast platform DISAGGREGATOR I P301L comprises the same ER stress element operably linked to the same GFP reporter element and additionally expresses the exogenous protein TAU P301L which induces ER stress.
# (§1) Using these two platforms in parallel, it is possible to identify compounds that reduce specifically the stress induced by the TAU P301L protein, and other compounds that are simply general ER stress reducers.
# DISAGGREGATOR I P301L cells were grown in 200 μl medium containing KTP-NH2 or control compounds (referred to as control 1 and control 2) at a concentration of 10 μM and 100 μM. No effect on the fluorescence could be detected for the control compounds, meaning that the two compounds are inefficient to reduce the stress triggered by the TAU P301L protein (FIGS. 7 and 8).
# (§2) DISAGGREGATOR I P301L cells were grown in 200 μl medium containing the KTP-NH2 at a concentration of 10 μM and 100 μM. DISAGGREGATOR I cells were grown in the same condition but subjected to an addition of 1 μg/mL of tunicamycin in order to induce ER stress chemically.
# The inventors created a yeast-based screening application for the detection of compounds that act as modulators of the toxicity (neurodegeneration) for neurons (not pain) induced by the expression of tau P301L, a pathological isoform of tau protein. This yeast-based application is designated as DISAGGREGATOR I P301L and provides a valuable tool for the high throughput screening of tau modulators. It is a model-based system where the cellular environment produced upon P301L expression is recapitulated and cell toxicity is measured and quantified. Compounds that have the potential to modulate pathological pathways activated by the expression of P301L are detected through a reduction in the cytotoxic readout. Tau protein is expressed in central nerve cells and, consequently, tauopathies are diseases of the central nervous system. This implies that a therapeutic compound for tauopathies must be able to access the central nervous system by penetrating the blood-brain barrier. We tested KTP-NH2 in the DISAGGREGATOR P301L system. Results were very impressive for KTP-NH2 to be used as a drug for tau-associated pathologies. Therefore, after obtaining the proof of concept confirmation of KTP-NH2 potential as a tau modulator, we developed a series of derivatives with a higher plasma-stability. The present invention protects the use of KTP-NH2 and its derivatives in the treatment of tau-induced cytotoxicities.
# [4] = tested on: […] I cells, tunicamycin-induced ER stress; assay: Yeast platform DISAGGREGATOR I, ER stress GFP reporter (chemically induced with tunicamycin); format: cell-based; conditions: 1 μg/ml tunicamycin
# Procedure: Cells were grown as described for FIG. 7;
# The yeast platform DISAGGREGATOR I comprises an ER stress element operably linked to a GFP reporter element and is used to determine the level of ER stress in cells during growth or triggered by specific ER stress inducers, e.g. tunicamycin. Tunicamycin is known to inhibit the glycosylation of nascent polypeptides, resulting in misfolded proteins, that are retained in the endoplasmic reticulum and therefore triggering ER stress.
# as §1, §2
# [5] = 100 μM, average of two experiments (FIG. 13)
structure (smiles),measurement,setting,value
"N=C(N)NCCCC(NC(=O)C(N)Cc1ccc(O)cc1)C(N)=O [KTP-NH2, L-Tyr-L-Arg-NH2]","partition coefficient for POPC, compared with KTP-OH","[1]; POPC membranes, KTP-OH value from Lopes et al 2006",significantly superior to the one of KTP-OH
same,local concentration in the model membrane of mammals versus surrounding bulk aqueous phase,"[1]; POPC vesicles, numerical treatment of fluorescence titration data","approx. 2,500 fold"
same,"anti-nociceptive response, temperature increase tolerated in the paw (Hot Plate)",[2],clear anti-nociceptive response
same,effect on the fluorescence (ER stress triggered by TAU P301L),[3]; 10 μM and 100 μM,decreased the fluorescence signal
same,decrease of the fluorescent signal,[3]; 10 μM,40%
same,decrease of the stress,[3]; 10 μM,50%
same,"residual ER stress signal, of the maximum level without compound",[3]; [5],~40%
same,decrease of the fluorescent signal,[3]; 100 μM,65%
same,decrease of the stress,[3]; 100 μM,50%
same,action on ER stress chemically induced with tunicamycin,"[4]; 10 and 100 μM, first assay (FIG. 10)",almost no action
same,decrease of stress chemically induced with tunicamycin,[4]; second assay (FIG. 12),did not significantly decrease
same,"residual ER stress signal, of the maximum level without compound",[4]; [5],80%
